Converted amounts (≈) assume the structure as drawn. Like-named read-outs stand apart in the source and are kept apart here. Marks after values point to notes of the source that are not given here.
Legend:
[1] = test system: S. aureus ATCC 25923; experiment: MIC, broth dilution, S. aureus; format: cell-based, Staphylococcus aureus; conditions: Staphylococcus aureus, ATCC25923; S. aureus ATCC 25923, 18 h; read-out: MIC Sa
[2] = test system: K. pneumoniae ATCC 700603; experiment: MIC, broth microdilution (CO-ADD), K. pneumoniae; conditions: top dose 32 µg/mL
[3] = test system: human red blood cells; experiment: Hemolytic assay; format: cell-based; conditions: 10% hemolytic activity, mean n = 2
Method: Human whole blood was washed three times with three volumes of 0.9% NaCl and then resuspended in the same solution to a concentration of 0.5 × 10^8 cells/mL, as determined by the manual cell count in a Neubauer hemocytometer. The washed cells were then added to the 384-well compound-containing plates for a final volume of 50 μL. After a 10 min shake on a plate shaker, the plates were then incubated for 1 h at 37 °C. After incubation, the plates were centrifuged at 1000× g for 10 min to pellet cells and debris; 25 μL of the supernatant was then transferred to a polystyrene 384-well assay plate. Hemolysis was determined by measuring the supernatant absorbance at […] (OD405). The absorbance was measured using a Tecan M1000 Pro monochromator plate reader. HC10 and HC50 (concentrations at 10% and 50% hemolysis, respectively) were calculated by a curve fitting the inhibition values vs. log (concentration) using a sigmoidal dose–response function with variable fitting values for the top, bottom, and slope.

[4] = test system: C. albicans ATCC 90028; experiment: Antifungal MIC (CO-ADD), C. albicans; format: cell-based; conditions: Candida albicans, ATCC90028, top dose 32 µg/mL
Method: (§1) For the antifungal assay, fungi strains were cultured for 3 days on YPD agar at 30 °C. A yeast suspension of 1 × 10^6 to 5 × 10^6 CFU/mL was prepared from five colonies. These stock suspensions were diluted with a yeast nitrogen base (YNB) (Becton Dickinson, 233520, New South Wales, Australia) broth to a final concentration of 2.5 × 10^3 CFU/mL. […] The plates were covered and incubated at 35 °C for 36 h without shaking. C. albicans MICs were determined by measuring the absorbance at OD530. For C. neoformans, resazurin was added at a 0.006% final concentration to each well and incubated for a further 3 h before the MICs were determined by measuring the absorbance at OD570–600. […] Fluconazole was used as a positive fungal inhibitor standard for C. albicans and C. neoformans. […] The quality control (QC) of the assays was determined by the antimicrobial controls and the Z′-factor (using positive and negative controls).

[5] = test system: MRSA ATCC 43300; experiment: MIC, broth microdilution (CO-ADD), MRSA; format: cell-based, methicillin-resistant S. aureus; conditions: Staphylococcus aureus, read-out: MIC MRSA
[6] = test system: P. aeruginosa ATCC 27853; experiment: Doxycycline potentiation against P. aeruginosa; format: cell-based, Pseudomonas aeruginosa; conditions: doxycycline at 2 µg/mL (4.5 µM); for Dox/Pa fold-change (intrinsic MIC / combination MIC): P. aeruginosa ATCC 27853; for Dox/Pa: concentration required to restore doxycycline activity (combination MIC): P. aeruginosa ATCC 27853, mean n = 3
From the text: (§2) These measurements were independently repeated in triplicate.

[7] = test system: E. coli ATCC 25922; experiment: MIC, broth dilution, E. coli; format: cell-based, Escherichia coli; conditions: E. coli ATCC 25922, 18 h
[8] = Cytotoxicity assay (resazurin); format: cell-based; conditions: human, HEK293 cells, mean n = 2
[9] = test system: E. coli ATCC 25922; experiment: Erythromycin potentiation against E. coli; format: cell-based, Escherichia coli; conditions: erythromycin at 2 µg/mL (2.7 µM); for Erythro/Ec fold-change (intrinsic MIC / combination MIC): E. coli; for Erythro/Ec: concentration required to restore erythromycin activity (combination MIC): mean n = 3
From the text: as §2

[10] = test system: P. aeruginosa ATCC 27853; experiment: MIC, broth dilution, P. aeruginosa; format: cell-based, Pseudomonas aeruginosa; conditions: P. aeruginosa ATCC 27853, 18 h, read-out: MIC Pa
[11] = test system: A. baumannii ATCC 19606; experiment: MIC, broth microdilution (CO-ADD), A. baumannii; format: cell-based, Acinetobacter baumannii
[12] = test system: C. neoformans ATCC 208821; experiment: Antifungal MIC (CO-ADD), C. neoformans; format: cell-based; conditions: Cryptococcus neoformans, ATCC208821, top dose 32 µg/mL
Method: as §1

[13] = MRSA ATCC 43300, top dose 32 µg/mL
[14] = Pseudomonas aeruginosa, ATCC27853
[15] = Acinetobacter baumannii, ATCC19606, top dose 32 µg/mL

Compound | MIC [1] | MIC Kp [2] | MIC [4] | MIC [5, 13] | Dox/Pa fold-change (intrinsic MIC / combination MIC) [6] | Dox/Pa: concentration required to restore doxycycline activity (combination MIC) [6] | MIC ([7]; Escherichia coli, ATCC25922) | Erythro/Ec fold-change (intrinsic MIC / combination MIC) [9] | Erythro/Ec: concentration required to restore erythromycin activity (combination MIC) [9] | MIC [10, 14] | MIC [11, 15] | MIC [12] | Hemolysis HC10 [3] | IC50 at 20 h [8] | MIC [5] | MIC [7] | MIC [10] | MIC ([11]; top dose 32 µg/mL)
O=C(N[C@H](CO)[C@H](O)c1ccc([N+](=O)[O-])cc1)C(Cl)Cl [Chloramphenicol, reference compound] | 1.5 to 3 µM (≈ 0.485 to 0.969 µg/mL) | – | – | – | – | – | – | – | – | – | – | – | – | – | – | – | – | –
O=C(NCCCNCCCCNCCCNC(=O)c1c[nH]c2ccccc12)c1c[nH]c2ccccc12 [Compound 12a] | 69.8 µM (≈ 34.1 µg/mL) | >45 ^j µM | > 45 µM | 22.3 µM (≈ 10.9 µg/mL) | > 8 fold | 34.9 µM | 139 µM (≈ 67.9 µg/mL) | 4 fold | 34.9 µM | > 279 µM | > 45 µM | – | >45 µM | > 45 µM | – | – | – | –
O=C(NCCCNCCCCCCCCNCCCNC(=O)c1c[nH]c2ccccc12)c1c[nH]c2ccccc12.O=C(O)C(F)(F)F.O=C(O)C(F)(F)F [Compound 12d] | 64.7 µM | >41 µM | > 41 µM | ≤ 0.32 µM | > 8 fold | 32.3 µM | 32.4 µM | – | – | > 259 µM | > 41 µM | ≤ 0.32 µM | >41 µM | > 41 µM | – | – | – | –
COc1ccc2[nH]cc(C(=O)NCCCNCCCCNCCCNC(=O)c3c[nH]c4ccc(OC)cc34)c2c1 [Compound 14a] | 257 µM (≈ 141 µg/mL) | >41 µM | > 41 µM | 10.3 µM (≈ 5.65 µg/mL) | > 4 fold | 64.4 µM | 257 µM (≈ 141 µg/mL) | 1 fold | 257 µM | > 257 µM | > 41 µM | – | >41 µM | > 41 µM | – | – | – | –
COc1ccc2[nH]cc(C(=O)NCCCNCCCCCCCNCCCNC(=O)c3c[nH]c4ccc(OC)cc34)c2c1.O=C(O)C(F)(F)F.O=C(O)C(F)(F)F [Compound 14c] | 122 µM | >39 µM | > 39 µM | > 39 µM | > 4 fold | 61.1 µM | > 244 µM | > 1 fold | 244 µM | > 244 µM | > 39 µM | – | >39 µM | > 39 µM | – | – | – | –
OC(Cn1cncn1)(Cn1cncn1)c1ccc(F)cc1F [Fluconazole, reference compound] | – | – | 0.4 µM (≈ 0.123 µg/mL) | – | – | – | – | – | – | – | – | 26 µM (≈ 7.96 µg/mL) | – | – | – | – | – | –
[H]/N=C(/N)N[C@H]1[C@H](O)[C@@H](O)[C@H](O[C@@H]2O[C@@H](C)[C@](O)(C=O)[C@H]2O[C@@H]2O[C@@H](CO)[C@H](O)[C@@H](O)[C@@H]2NC)[C@@H](N/C(N)=N\[H])[C@@H]1O [Streptomycin, reference compound] | 21.5 µM (≈ 12.5 µg/mL) | – | – | – | – | – | 21.5 µM (≈ 12.5 µg/mL) | – | – | 21.5 µM (≈ 12.5 µg/mL) | – | – | – | – | – | – | – | –
CN[C@H](CC(C)C)C(=O)N[C@H]1C(=O)N[C@@H](CC(N)=O)C(=O)N[C@H]2C(=O)N[C@H]3C(=O)N[C@H](C(=O)N[C@H](C(=O)O)c4cc(O)cc(O)c4-c4cc3ccc4O)[C@H](O)c3ccc(c(Cl)c3)Oc3cc2cc(c3O[C@@H]2O[C@H](CO)[C@@H](O)[C@H](O)[C@H]2O[C@H]2C[C@](C)(N)[C@H](O)[C@H](C)O2)Oc2ccc(cc2Cl)[C@H]1O [Vancomycin, reference compound] | – | – | – | – | – | – | – | – | – | – | – | – | – | – | 0.7 µM (≈ 1.01 µg/mL) | – | – | –
C[C@H]1c2cccc(O)c2C(=O)C2=C(O)[C@]3(O)C(=O)C(C(N)=O)=C(O)[C@@H](N(C)C)[C@@H]3[C@@H](O)[C@@H]21 [doxycycline, reference compound] | – | – | – | – | – | – | – | – | – | 90 µM (≈ 40 µg/mL) | – | – | – | – | – | – | – | –
CC[C@H]1OC(=O)[C@H](C)[C@@H](O[C@H]2C[C@@](C)(OC)[C@@H](O)[C@H](C)O2)[C@H](C)[C@@H](O[C@@H]2O[C@H](C)C[C@H](N(C)C)[C@H]2O)[C@](C)(O)C[C@@H](C)C(=O)[C@H](C)[C@@H](O)[C@]1(C)O [erythromycin, reference compound] | – | – | – | – | – | – | 174 µM (≈ 128 µg/mL) | – | – | – | – | – | – | – | – | – | – | –
CC/C(=C(\c1ccccc1)c1ccc(OCCN(C)C)cc1)c1ccccc1 [tamoxifen, reference compound] | – | – | – | – | – | – | – | – | – | – | – | – | – | 24 µM | – | – | – | –
Colistin [reference compound] | – | 0.2 µM | – | – | – | – | – | – | – | – | – | – | – | – | – | 2 µM | 1 µM | 0.2 µM

The next lines start with results.

MIC [1] | MIC Kp [2] | MIC [4] | MIC [5, 13] | Dox/Pa fold-change (intrinsic MIC / combination MIC) [6] | Dox/Pa: concentration required to restore doxycycline activity (combination MIC) [6] | MIC ([7]; Escherichia coli, ATCC25922) | Erythro/Ec fold-change (intrinsic MIC / combination MIC) [9] | Erythro/Ec: concentration required to restore erythromycin activity (combination MIC) [9] | MIC [10, 14] | MIC [11, 15] | MIC [12] | Compound | Hemolysis HC10 [3] | IC50 at 20 h [8] | MIC [5] | MIC [7] | MIC [10] | MIC ([11]; top dose 32 µg/mL)
> 266 µM | >43 µM | > 43 µM | > 43 µM | 1 fold | 266 µM | > 266 µM | 1 fold | > 266 µM | 266 µM (≈ 140 µg/mL) | > 43 µM | – | O=C(NCCCNCCCCNCCCNC(=O)c1c[nH]c2c(F)cccc12)c1c[nH]c2c(F)cccc12 [Compound 16a] | >43 µM | > 43 µM | – | – | – | –
256 µM (≈ 141 µg/mL) | >41 µM | > 41 µM | > 41 µM | > 4 fold | 64.0 µM | 256 µM (≈ 141 µg/mL) | 2 fold | 128 µM | > 256 µM | > 41 µM | – | O=C(NCCCNCCCCCCNCCCNC(=O)c1c[nH]c2c(F)cccc12)c1c[nH]c2c(F)cccc12 [Compound 16b] | >41 µM | > 41 µM | – | – | – | –
129 µM (≈ 70.8 µg/mL) | >41 µM | > 41 µM | 20.6 µM (≈ 11.3 µg/mL) | > 2 fold | 129 µM | > 257 µM | 1 fold | > 257 µM | > 257 µM | > 41 µM | – | COc1cccc2c(C(=O)NCCCNCCCCNCCCNC(=O)c3c[nH]c4c(OC)cccc34)c[nH]c12 [Compound 17a] | >41 µM | > 41 µM | – | – | – | –
124 µM (≈ 71.5 µg/mL) | >40 µM | > 40 µM | > 40 µM | 1 fold | > 248 µM | 248 µM (≈ 143 µg/mL) | 1 fold | > 248 µM | > 248 µM | > 40 µM | – | COc1cccc2c(C(=O)NCCCNCCCCCCNCCCNC(=O)c3c[nH]c4c(OC)cccc34)c[nH]c12 [Compound 17b] | >40 µM | > 40 µM | – | – | – | –
> 269 µM | >43 µM | > 43 µM | 21.5 µM (≈ 11.1 µg/mL) | 1 fold | 269 µM | > 269 µM | 1 fold | > 269 µM | 269 µM (≈ 139 µg/mL) | > 43 µM | – | Cc1cccc2c(C(=O)NCCCNCCCCNCCCNC(=O)c3c[nH]c4c(C)cccc34)c[nH]c12 [Compound 18a] | >43 µM | > 43 µM | – | – | – | –
